Experimental data published in US9265795B2, “Cellular compositions for use in therapy” (RENEURON LIMITED, priority 2008, dated 2016).

System: neural stem cell line, CTX0E03
Test: Hypothermic / ambient shelf-life viability studies (trypan blue exclusion)
Assay type: cell-based, human
Settings: in saline solution at ambient temperature
Protocol: Cultures of cells were expanded in T-flasks until 70 to 90% confluent. The spent medium was aspirated and then the cell monolayer washed with HBSS without magnesium or calcium ions (Invitrogen). The wash was aspirated and then the cells dissociated with recombinant bovine trypsin (Lonza TrypZean/EDTA) for 5 minutes at 37° C. The dissociated cell suspension was mixed with a trypsin inhibitor solution (0.55 mg/ml soybean trypsin inhibitor [Sigma], 1% HSA [Grifols], 25 U/ml benzon nuclease [VWR] in DMEM:F12 [Invitrogen]) and centrifuged for 5 minutes at ˜500×g. The supernatant was aspirated and the cell pellet washed in 50% HypoThermosol®-FRS (BioLife Solutions, Inc) in DMEM:F12 followed by centrifugation at ˜500×g for 5 minutes. The cell pellet was then suspended in HypoThermosol®-FRS at a concentration of 40,000 to 60,000 cells/μl. […]
Shelf-life studies have assessed the viability of the therapeutic and commercially manufactured neural stem cell line, CTX0E03 (Pollock et al., 2006), formulated in saline or using the method described in this invention using HTS-FRS. […]
Samples of cells were mixed 1:1 with 0.4% Trypan blue (Sigma) and loaded onto a haemocytometer. […] The viability and concentration of the sample is determined by counting the cells within a grid of the haemocytometer using 10× objective phase-contrast microscopy.

## Cc1c(C)c2c(c(C)c1O)CCC(C)(C(=O)O)O2 (stereo not shown) [Trolox]
  time neural stem cells are preserved: 2 days
